According to patent US20070074295A1 (priority 2000, published 2007):

Key:
[1] = tested on: rats; assay: Effect of haloperidol and clozapine on PCP induced hypofunction: LCGU; format: in vivo, rat; details: for LCGU, Au layer I / LCGU, Au layers II, III&IV / LCGU, Au layers V & VI / LCGU, AuD layer I / LCGU, AuD layers II, III&IV / LCGU, AuD layers V & VI / LCGU, CA1 molecular layer / LCGU, CA1 pyramidal cell layer / LCGU, CA1 stratum oriens / LCGU, CA1 stratum radiatum / LCGU, CA3 molecular layer / LCGU, CA3 pyramidal cell layer / LCGU, CA3 stratum oriens / LCGU, CA3 stratum radiatum / LCGU, DLL / LCGU, MD / LCGU, PrL layer I / LCGU, PrL layers II & III / LCGU, PrL layers V & VI / LCGU, Rt / LCGU, VLL / LCGU, cochlear nucleus / LCGU, mO layer I / LCGU, mO layers II & III / LCGU, mO layers V & VI: day 29
From the text: The effect of antipsychotics on the positive symptoms is less well studied regarding imaging studies.

[2] = tested on: TNFα mRNA; assay: RT-PCR for TNFα mRNA in rat prefrontal cortex; format: in vivo; details: chronic PCP in combination with haloperidol vs chronic PCP group
Procedure: Four groups of rats were treated with (a) chronic PCP, (b) chronic vehicle (control), (c) chronic PCP plus chronic clozapine (as above) or (d) chronic PCP plus chronic haloperidol (as above). The tissue was processed for RNA extraction and RT-PCP as described above, using primers specific for TNFα mRNA.

[3] = tested on: CIRL3 variant AA mRNA; assay: Semi-quantitative RT-PCR, prefrontal cortex, chronic PCP and antipsychotic treatment; format: in vivo, rat; details: chronic PCP plus antipsychotic
Procedure: FIG. 16 illustrates the level of CIRL3 variant AA mRNA present in the prefrontal cortex of rat brain following chronic PCP and antipsychotic treatment (n=12 for all groups apart from veh-veh where n=11) […] and […] (SEQ ID NOS: 29-30) were the primer sequences used to amplify this product.
(§1) RT-PCR for specific isoforms of CIRL was then conducted in the prefrontal cortex.
(§2) 1 ml of lysis buffer (Qiagen), including 1% β-mercaptoethanol, was added to approximately 50-100 mg of brain tissue. Tissue samples were homogenised using a ribolyser (Hybaid) with 3 bursts at 6.5 g lasting 20 seconds each. Samples were then spun at room temperature in a microfuge for 3 minutes. The supernatant was removed and re-spun for a further 3 minutes. The supernatant was decanted to a fresh tube to which an equal volume of 70% ethanol was added. The remaining RNA isolation procedure was carried out according to the manufacturer's protocol (Qiagen).
(§3) Synthesis of cDNA was carried out according to manufacturers protocols (Life Technologies). Briefly 3-5μg of total RNA was reverse transcribed using oligo dT priming. After cDNA synthesis, samples were aliquoted and stored at −70° C. […]
(§4) Alterations in expression levels were determined by semi-quantitative PCR. […] Samples were removed over 4 consecutive cycles, however, the first cycle to be removed sometimes varied depending on when logarithmic amplification was detected. […]

[4] = tested on: CIRL2 variant AB mRNA; assay: as above; format: in vivo, rat; details: chronic PCP plus antipsychotic
Procedure: FIG. 15 illustrates the level of CIRL2 variant AB mRNA present in the prefrontal cortex of rat brain following chronic PCP and antipsychotic treatment (n=12 for all groups apart from veh-veh where n=11). […] and […] (SEQ ID NOS: 27-28) were the primer sequences used to amplify this product.
as §1, §2, §3, §4

[5] = tested on: CIRL1 mRNA; assay: as above; format: in vivo, rat; details: chronic PCP plus antipsychotic
Procedure: FIG. 14 illustrates the level of CIRL1 mRNA present in the prefrontal cortex of rat brain following chronic PCP and antipsychotic treatment (n=12 for all groups apart from veh-veh where n=11). […] and […] (SEQ ID NOS: 25-26) were the primer sequences used to amplify this product.
as §1, §2, §3, §4

[6] = i.p. PCP 2.58 mgkg^−1, minipump vehicle, clozapine 20 or haloperidol 1 mgkg^−1/day
[7] = i.p. vehicle, minipump clozapine 20 or haloperidol 1 mgkg^−1/day
[8] = antipsychotic in conjunction with PCP 2.58 mgkg^−1
[9] = clozapine or haloperidol via minipump

Compound: CN1CCN(C2=Nc3cc(Cl)ccc3Nc3ccccc32)CC1 [clozapine]
- LCGU, Au layer I [1, 6]: 140 ± 5 μmol/100 g/min
- LCGU, Au layers II, III&IV [1, 6]: 166 ± 6 μmol/100 g/min
- LCGU, Au layers V & VI [1, 6]: 118 ± 4 μmol/100 g/min
- LCGU, AuD layer I [1, 6]: 135 ± 5 μmol/100 g/min
- LCGU, AuD layers II, III&IV [1, 6]: 152 ± 6 μmol/100 g/min
- LCGU, AuD layers V & VI [1, 6]: 107 ± 4 μmol/100 g/min
- LCGU, CA1 molecular layer [1, 6]: 87 ± 2 μmol/100 g/min
- LCGU, CA1 pyramidal cell layer [1, 6]: 62 ± 2 μmol/100 g/min
- LCGU, CA1 stratum oriens [1, 6]: 57 ± 2 μmol/100 g/min
- LCGU, CA1 stratum radiatum [1, 6]: 66 ± 3 μmol/100 g/min
- LCGU, CA3 molecular layer [1, 6]: 84 ± 2 μmol/100 g/min
- LCGU, CA3 pyramidal cell layer [1, 6]: 69 ± 3 μmol/100 g/min
- LCGU, CA3 stratum oriens [1, 6]: 62 ± 1 μmol/100 g/min
- LCGU, CA3 stratum radiatum [1, 6]: 69 ± 2 μmol/100 g/min
- LCGU, DLL [1, 6]: 108 ± 5 μmol/100 g/min
- LCGU, MD [1, 6]: 113 ± 3 μmol/100 g/min
- LCGU, PrL layer I [1, 6]: 118 ± 6 μmol/100 g/min
- LCGU, PrL layers II & III [1, 6]: 134 ± 7 μmol/100 g/min
- LCGU, PrL layers V & VI [1, 6]: 104 ± 5 μmol/100 g/min
- LCGU, Rt [1, 6]: 81 ± 2 μmol/100 g/min
- LCGU, VLL [1, 6]: 118 ± 5 μmol/100 g/min
- LCGU, cochlear nucleus [1, 6]: 119 ± 8 μmol/100 g/min
- LCGU, mO layer I [1, 6]: 104 ± 5 μmol/100 g/min
- LCGU, mO layers II & III [1, 6]: 112 ± 6 μmol/100 g/min
- LCGU, mO layers V & VI [1, 6]: 115 ± 5 μmol/100 g/min
- LCGU, Au layer I [1, 7]: 136 ± 6 μmol/100 g/min
- LCGU, Au layers II, III&IV [1, 7]: 169 ± 6 μmol/100 g/min
- LCGU, Au layers V & VI [1, 7]: 126 ± 4 μmol/100 g/min
- LCGU, AuD layer I [1, 7]: 136 ± 4 μmol/100 g/min
- LCGU, AuD layers II, III&IV [1, 7]: 154 ± 5 μmol/100 g/min
- LCGU, AuD layers V & VI [1, 7]: 115 ± 6 μmol/100 g/min
- LCGU, CA1 molecular layer [1, 7]: 102 ± 5 μmol/100 g/min
- LCGU, CA1 pyramidal cell layer [1, 7]: 78 ± 4 μmol/100 g/min
- LCGU, CA1 stratum oriens [1, 7]: 72 ± 4 μmol/100 g/min
- LCGU, CA1 stratum radiatum [1, 7]: 80 ± 4 μmol/100 g/min
- LCGU, CA3 molecular layer [1, 7]: 96 ± 4 μmol/100 g/min
- LCGU, CA3 pyramidal cell layer [1, 7]: 81 ± 4 μmol/100 g/min
- LCGU, CA3 stratum oriens [1, 7]: 74 ± 4 μmol/100 g/min
- LCGU, CA3 stratum radiatum [1, 7]: 83 ± 5 μmol/100 g/min
- LCGU, DLL [1, 7]: 99 ± 5 μmol/100 g/min
- LCGU, MD [1, 7]: 124 ± 6 μmol/100 g/min
- LCGU, PrL layer I [1, 7]: 119 ± 4 μmol/100 g/min
- LCGU, PrL layers II & III [1, 7]: 139 ± 5 μmol/100 g/min
- LCGU, PrL layers V & VI [1, 7]: 98 ± 4 μmol/100 g/min
- LCGU, Rt [1, 7]: 95 ± 4 μmol/100 g/min
- LCGU, VLL [1, 7]: 109 ± 5 μmol/100 g/min
- LCGU, cochlear nucleus [1, 7]: 108 ± 7 μmol/100 g/min
- LCGU, mO layer I [1, 7]: 93 ± 4 μmol/100 g/min
- LCGU, mO layers II & III [1, 7]: 109 ± 4 μmol/100 g/min
- LCGU, mO layers V & VI [1, 7]: 106 ± 5 μmol/100 g/min

Compound: O=C(CCCN1CCC(O)(c2ccc(Cl)cc2)CC1)c1ccc(F)cc1 [haloperidol]
- levels of TNFα in rat prefrontal cortex [2]: significantly different from the chronic PCP group
- effect on PCP-induced reductions in CIRL3 [3]: reversed
- effect on PCP-induced reductions in CIRL2 [4]: reversed
- effect on PCP-induced reductions in the level of CIRL1 mRNA [5]: not
- effect on PCP hypofunction in medial orbital cortex, prelimbic cortex, CA1, reticular nucleus of the thalamus [1, 8]: failed to modulate the hypofunction produced by PCP
- effect on PCP-induced hypofunction in auditory system (AuD, lateral lemniscus, cochlear nucleus) [1, 8]: reversed the PCP-induced hypofunction
- LCGU in auditory system (AuD, lateral lemniscus, cochlear nucleus), drug alone [1, 9]: did not produce a significant hypofunction
- LCGU in medial orbital cortex, prelimbic cortex, CA1, reticular nucleus of the thalamus, drug alone [1, 9]: produced a metabolic hypofunction
- LCGU, Au layer I [1, 6]: 141 ± 8 μmol/100 g/min
- LCGU, Au layers II, III&IV [1, 6]: 174 ± 10 μmol/100 g/min
- LCGU, Au layers V & VI [1, 6]: 117 ± 7 μmol/100 g/min
- LCGU, AuD layer I [1, 6]: 133 ± 7 μmol/100 g/min
- LCGU, AuD layers II, III&IV [1, 6]: 156 ± 10 μmol/100 g/min
- LCGU, AuD layers V & VI [1, 6]: 106 ± 6 μmol/100 g/min
- LCGU, CA1 molecular layer [1, 6]: 97 ± 4 μmol/100 g/min
- LCGU, CA1 pyramidal cell layer [1, 6]: 70 ± 4 μmol/100 g/min
- LCGU, CA1 stratum oriens [1, 6]: 64 ± 4 μmol/100 g/min
- LCGU, CA1 stratum radiatum [1, 6]: 74 ± 4 μmol/100 g/min
- LCGU, CA3 molecular layer [1, 6]: 94 ± 6 μmol/100 g/min
- LCGU, CA3 pyramidal cell layer [1, 6]: 74 ± 5 μmol/100 g/min
- LCGU, CA3 stratum oriens [1, 6]: 69 ± 5 μmol/100 g/min
- LCGU, CA3 stratum radiatum [1, 6]: 76 ± 5 μmol/100 g/min
- LCGU, DLL [1, 6]: 107 ± 2 μmol/100 g/min
- LCGU, MD [1, 6]: 119 ± 6 μmol/100 g/min
- LCGU, PrL layer I [1, 6]: 115 ± 3 μmol/100 g/min
- LCGU, PrL layers II & III [1, 6]: 134 ± 4 μmol/100 g/min
- LCGU, PrL layers V & VI [1, 6]: 97 ± 3 μmol/100 g/min
- LCGU, Rt [1, 6]: 80 ± 1 μmol/100 g/min
- LCGU, VLL [1, 6]: 110 ± 3 μmol/100 g/min
- LCGU, cochlear nucleus [1, 6]: 115 ± 2 μmol/100 g/min
- LCGU, mO layer I [1, 6]: 105 ± 4 μmol/100 g/min
- LCGU, mO layers II & III [1, 6]: 116 ± 4 μmol/100 g/min
- LCGU, mO layers V & VI [1, 6]: 119 ± 4 μmol/100 g/min
- LCGU, Au layer I [1, 7]: 142 ± 9 μmol/100 g/min
- LCGU, Au layers II, III&IV [1, 7]: 167 ± 9 μmol/100 g/min
- LCGU, Au layers V & VI [1, 7]: 112 ± 9 μmol/100 g/min
- LCGU, AuD layer I [1, 7]: 139 ± 9 μmol/100 g/min
- LCGU, AuD layers II, III&IV [1, 7]: 153 ± 9 μmol/100 g/min
- LCGU, AuD layers V & VI [1, 7]: 108 ± 7 μmol/100 g/min
- LCGU, CA1 molecular layer [1, 7]: 92 ± 5 μmol/100 g/min
- LCGU, CA1 pyramidal cell layer [1, 7]: 63 ± 4 μmol/100 g/min
- LCGU, CA1 stratum oriens [1, 7]: 59 ± 4 μmol/100 g/min
- LCGU, CA1 stratum radiatum [1, 7]: 66 ± 4 μmol/100 g/min
- LCGU, CA3 molecular layer [1, 7]: 90 ± 4 μmol/100 g/min
- LCGU, CA3 pyramidal cell layer [1, 7]: 71 ± 4 μmol/100 g/min
- LCGU, CA3 stratum oriens [1, 7]: 64 ± 4 μmol/100 g/min
- LCGU, CA3 stratum radiatum [1, 7]: 73 ± 1 μmol/100 g/min
- LCGU, DLL [1, 7]: 92 ± 4 μmol/100 g/min
- LCGU, MD [1, 7]: 117 ± 5 μmol/100 g/min
- LCGU, PrL layer I [1, 7]: 114 ± 4 μmol/100 g/min
- LCGU, PrL layers II & III [1, 7]: 131 ± 4 μmol/100 g/min
- LCGU, PrL layers V & VI [1, 7]: 93 ± 4 μmol/100 g/min
- LCGU, Rt [1, 7]: 86 ± 4 μmol/100 g/min
- LCGU, VLL [1, 7]: 106 ± 5 μmol/100 g/min
- LCGU, cochlear nucleus [1, 7]: 99 ± 9 μmol/100 g/min
- LCGU, mO layer I [1, 7]: 93 ± 4 μmol/100 g/min
- LCGU, mO layers II & III [1, 7]: 106 ± 4 μmol/100 g/min
- LCGU, mO layers V & VI [1, 7]: 102 ± 4 μmol/100 g/min
